Like-named read-outs stand apart in the source and are kept apart here.
Assays:
[1] = test system: rat formalin model of pain; assay: Formalin test (formalin-induced flinching); type: in vivo; settings: for Analgesic efficacy: rat formalin model, significant (p < 0.05) decrease in flinching at a dose without a reduction in open field movement that obviated the result; for Reduction in formalin flinching, result in words: rat formalin test; for Decrease in formalin flinching: phase 2 (10 to 40 min), percent of vehicle
Protocol: Formalin-induced flinching was measured using the Automated Nociception Analyzer (ANA) (University Anesthesia Research & Development Group, La Jolla, CA). Rats were habituated to the ANA testing chambers for at least 30 minutes prior to the formalin injection. At test time, each rat was removed from the testing chamber and gently wrapped in a towel. 50 μL of 2.5% formalin solution was injected into the dorsal surface of the left hind paw with a 30 gauge needle. A small metal band was then affixed to the plantar side of the injected paw with one drop of super glue. The animal was then unwrapped from the towel, placed back in the testing chamber, and flinching behavior was scored for 40 minutes by the ANA software. While minimized, non-painful paw movement from the natural activity of an alert animal could be erroneously binned by the automated recording system as a nociceptive behavior. These behaviors are not subtracted from the flinching total. […] Total flinching behavior was used as the endpoint of the assay.

rat Nav1.7 = rat Nav1.7 (Rattus norvegicus, UniProt O08562); assay: PatchXpress automated electrophysiology on rat Nav1.7; type: cell-based; settings: 20%-inactivated rat Nav1.7
naïve rats = assay: Open field activity (basic movement); type: in vivo, rat; settings: formalin-naïve rats
Protocol: Basic movement was measured using the Photobeam Activity System Open Field (San Diego Instruments, San Diego, CA) equipped with 48 infrared photocell emitters and detectors. Photobeams used to measure vertical movement were positioned 14 cm above the test chamber floor. Each testing chamber was made of Plexiglas (41 x 41 x 36 cm) and was devoid of any bedding. At the beginning of the test session, each animal was placed in a separate testing chamber and the room lights were turned off. Basic movement was measured for 30 minutes.

[2] = Terminal plasma and brain concentrations after behavioral testing; type: in vivo, rat; settings: for Kp: brain and plasma, rat, ratio of concentrations measured following the formalin test; for Effective [plasma]: mean terminal plasma concentration at the lowest effective dose in the rat formalin test
[3] = In vitro plasma protein binding; type: in vitro ADME
hNav1.7 = molecular target: T1, hNav1.7 (Homo sapiens, UniProt Q15858); assay: Manual whole cell patch clamp electrophysiology on HEK 293 cells stably expressing hNav1.7; type: cell-based
T1 construct: expressed in transfected cells; host or cells: HEK 293
Protocol: Except as indicated, recordings to determine potency of aminotriazines on Nav1.7 were made with manual electrophysiology. HEK 293 cells stably expressing hNav1.7 were voltage-clamped using the whole cell patch clamp configuration. Cells were plated onto 35 mm culture dishes 0–24 hours before recording, and tissue culture medium was exchanged for external solution containing (in mM) 140 NaCl, 5 KCl, 2 CaCl2, 1 MgCl2, 10 HEPES, 11 glucose, pH 7.4 with NaOH. Patch pipettes were pulled from borosilicate glass capillaries (1.2 mm outer diameter, World Precision Instruments, Sarasota, FL) with a P-97 pipette puller (Sutter Instruments, Novato, CA) and backfilled with internal solution containing (in mM) 62.5 CsCl, 75 CsF, 2.5 MgCl2, 5 EGTA, 10 HEPES, pH 7.25 with CsOH. Pipette resistances were between 1.5 and 2.0 MΩ. After formation of the whole-cell configuration, cells were lifted off the dish bottom with the patch pipette and positioned directly in front of a microarray of glass tubes (each tube internal diameter ~ 1 mm) with each tube containing continuously flowing control or test solution. A full current-voltage relation was recorded from each cell, and cells with poor space clamp as indicated by discontinuous I-V relation or by prolonged or nonexponential current kinetics were discarded. Solution switching was accomplished by moving the microarray with computer control via an RSC-160 rapid solution exchanger (Bio-Logic, Claix, France). Currents were recorded with an Axopatch 200B patch-clamp amplifier driven by pCLAMP software, filtered (4-pole Bessel) at 5 kHz during acquisition, and digitized at 20 kHz using pClamp9.2. Whole cell capacitance and series resistance were compensated at 0%- 80%, and reported voltages were uncorrected for liquid junction potentials. Recordings were made at room temperature. Concentration-response curves were taken by measuring inward Nav1.7 current every five to six seconds with a 10 ms to 20 ms depolarization to near the peak of the current-voltage relation, before and after steady-state inhibition by a given concentration of aminotriazine. For concentration response curves on partially inactivated channels, holding voltage was set to produce 20% fractional inactivation. […] Occasionally two compound concentrations were tested in parallel without resetting the voltage, if inhibition was rapid and the current level steady. […] Concentration response curves on non-inactivated channels generally were taken with multiple concentrations added in series without washoff of the previous concentration.

[4] = IC50 (μM) 20%-inactivated, 20%-inactivated human Nav1.7, holding voltage set to produce 20% fractional inactivation
[5] = non-inactivated human Nav1.7, holding voltage -140 mV or occasionally -120 mV, peak concentration tested 10 μM, read-out: IC50 (μM) Non-inactivated
[6] = 10 mg/kg p.o., negative value = increase

T1 sequence (Q15858 whole entry): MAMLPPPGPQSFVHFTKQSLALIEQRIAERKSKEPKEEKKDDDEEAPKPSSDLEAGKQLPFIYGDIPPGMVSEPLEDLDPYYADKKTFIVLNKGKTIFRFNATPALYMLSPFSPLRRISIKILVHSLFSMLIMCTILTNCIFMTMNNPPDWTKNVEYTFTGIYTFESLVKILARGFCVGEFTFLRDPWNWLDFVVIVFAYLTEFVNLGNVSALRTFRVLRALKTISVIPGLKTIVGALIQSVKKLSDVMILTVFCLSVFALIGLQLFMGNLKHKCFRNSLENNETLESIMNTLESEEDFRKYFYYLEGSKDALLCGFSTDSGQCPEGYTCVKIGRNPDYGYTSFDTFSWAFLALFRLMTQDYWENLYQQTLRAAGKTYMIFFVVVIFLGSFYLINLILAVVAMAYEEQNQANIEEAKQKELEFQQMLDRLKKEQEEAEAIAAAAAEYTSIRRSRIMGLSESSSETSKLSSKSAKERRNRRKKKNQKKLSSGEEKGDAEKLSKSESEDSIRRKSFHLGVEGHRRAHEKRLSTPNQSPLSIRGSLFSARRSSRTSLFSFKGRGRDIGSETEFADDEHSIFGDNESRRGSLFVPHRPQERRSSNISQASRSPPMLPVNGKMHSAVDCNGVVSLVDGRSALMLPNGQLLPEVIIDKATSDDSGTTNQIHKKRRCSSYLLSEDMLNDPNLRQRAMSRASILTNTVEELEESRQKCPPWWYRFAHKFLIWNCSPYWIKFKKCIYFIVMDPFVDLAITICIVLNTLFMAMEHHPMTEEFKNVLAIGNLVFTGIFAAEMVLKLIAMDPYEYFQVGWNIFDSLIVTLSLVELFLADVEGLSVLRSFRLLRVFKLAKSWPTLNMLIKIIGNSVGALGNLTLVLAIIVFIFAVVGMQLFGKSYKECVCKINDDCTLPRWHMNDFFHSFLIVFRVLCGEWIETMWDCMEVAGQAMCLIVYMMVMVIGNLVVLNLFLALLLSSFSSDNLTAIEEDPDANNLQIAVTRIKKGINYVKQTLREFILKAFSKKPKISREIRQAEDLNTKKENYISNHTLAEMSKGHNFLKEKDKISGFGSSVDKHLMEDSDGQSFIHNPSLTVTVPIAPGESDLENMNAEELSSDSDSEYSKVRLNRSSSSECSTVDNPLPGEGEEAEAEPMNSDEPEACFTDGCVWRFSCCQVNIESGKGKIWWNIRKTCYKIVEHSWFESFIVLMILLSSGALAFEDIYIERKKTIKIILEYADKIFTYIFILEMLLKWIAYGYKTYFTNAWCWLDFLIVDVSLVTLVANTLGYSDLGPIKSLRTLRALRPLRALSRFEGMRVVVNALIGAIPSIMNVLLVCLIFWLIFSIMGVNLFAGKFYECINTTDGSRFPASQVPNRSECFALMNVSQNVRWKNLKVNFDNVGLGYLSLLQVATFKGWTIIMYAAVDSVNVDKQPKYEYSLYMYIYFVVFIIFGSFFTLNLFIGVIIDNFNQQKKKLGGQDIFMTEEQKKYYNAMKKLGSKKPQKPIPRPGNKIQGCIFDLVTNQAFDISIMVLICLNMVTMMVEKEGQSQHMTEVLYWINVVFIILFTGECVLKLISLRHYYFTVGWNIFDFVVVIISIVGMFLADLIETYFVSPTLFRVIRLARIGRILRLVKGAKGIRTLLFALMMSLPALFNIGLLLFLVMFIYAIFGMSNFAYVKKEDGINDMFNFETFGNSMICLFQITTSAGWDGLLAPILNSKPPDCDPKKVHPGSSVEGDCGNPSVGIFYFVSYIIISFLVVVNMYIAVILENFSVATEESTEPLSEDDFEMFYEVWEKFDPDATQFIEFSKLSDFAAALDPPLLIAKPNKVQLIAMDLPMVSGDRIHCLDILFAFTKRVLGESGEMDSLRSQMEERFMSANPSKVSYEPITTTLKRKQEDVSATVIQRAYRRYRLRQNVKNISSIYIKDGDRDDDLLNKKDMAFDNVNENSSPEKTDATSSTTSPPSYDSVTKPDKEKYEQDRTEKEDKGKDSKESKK
Chain of rat Nav1.7 (O08562 whole entry): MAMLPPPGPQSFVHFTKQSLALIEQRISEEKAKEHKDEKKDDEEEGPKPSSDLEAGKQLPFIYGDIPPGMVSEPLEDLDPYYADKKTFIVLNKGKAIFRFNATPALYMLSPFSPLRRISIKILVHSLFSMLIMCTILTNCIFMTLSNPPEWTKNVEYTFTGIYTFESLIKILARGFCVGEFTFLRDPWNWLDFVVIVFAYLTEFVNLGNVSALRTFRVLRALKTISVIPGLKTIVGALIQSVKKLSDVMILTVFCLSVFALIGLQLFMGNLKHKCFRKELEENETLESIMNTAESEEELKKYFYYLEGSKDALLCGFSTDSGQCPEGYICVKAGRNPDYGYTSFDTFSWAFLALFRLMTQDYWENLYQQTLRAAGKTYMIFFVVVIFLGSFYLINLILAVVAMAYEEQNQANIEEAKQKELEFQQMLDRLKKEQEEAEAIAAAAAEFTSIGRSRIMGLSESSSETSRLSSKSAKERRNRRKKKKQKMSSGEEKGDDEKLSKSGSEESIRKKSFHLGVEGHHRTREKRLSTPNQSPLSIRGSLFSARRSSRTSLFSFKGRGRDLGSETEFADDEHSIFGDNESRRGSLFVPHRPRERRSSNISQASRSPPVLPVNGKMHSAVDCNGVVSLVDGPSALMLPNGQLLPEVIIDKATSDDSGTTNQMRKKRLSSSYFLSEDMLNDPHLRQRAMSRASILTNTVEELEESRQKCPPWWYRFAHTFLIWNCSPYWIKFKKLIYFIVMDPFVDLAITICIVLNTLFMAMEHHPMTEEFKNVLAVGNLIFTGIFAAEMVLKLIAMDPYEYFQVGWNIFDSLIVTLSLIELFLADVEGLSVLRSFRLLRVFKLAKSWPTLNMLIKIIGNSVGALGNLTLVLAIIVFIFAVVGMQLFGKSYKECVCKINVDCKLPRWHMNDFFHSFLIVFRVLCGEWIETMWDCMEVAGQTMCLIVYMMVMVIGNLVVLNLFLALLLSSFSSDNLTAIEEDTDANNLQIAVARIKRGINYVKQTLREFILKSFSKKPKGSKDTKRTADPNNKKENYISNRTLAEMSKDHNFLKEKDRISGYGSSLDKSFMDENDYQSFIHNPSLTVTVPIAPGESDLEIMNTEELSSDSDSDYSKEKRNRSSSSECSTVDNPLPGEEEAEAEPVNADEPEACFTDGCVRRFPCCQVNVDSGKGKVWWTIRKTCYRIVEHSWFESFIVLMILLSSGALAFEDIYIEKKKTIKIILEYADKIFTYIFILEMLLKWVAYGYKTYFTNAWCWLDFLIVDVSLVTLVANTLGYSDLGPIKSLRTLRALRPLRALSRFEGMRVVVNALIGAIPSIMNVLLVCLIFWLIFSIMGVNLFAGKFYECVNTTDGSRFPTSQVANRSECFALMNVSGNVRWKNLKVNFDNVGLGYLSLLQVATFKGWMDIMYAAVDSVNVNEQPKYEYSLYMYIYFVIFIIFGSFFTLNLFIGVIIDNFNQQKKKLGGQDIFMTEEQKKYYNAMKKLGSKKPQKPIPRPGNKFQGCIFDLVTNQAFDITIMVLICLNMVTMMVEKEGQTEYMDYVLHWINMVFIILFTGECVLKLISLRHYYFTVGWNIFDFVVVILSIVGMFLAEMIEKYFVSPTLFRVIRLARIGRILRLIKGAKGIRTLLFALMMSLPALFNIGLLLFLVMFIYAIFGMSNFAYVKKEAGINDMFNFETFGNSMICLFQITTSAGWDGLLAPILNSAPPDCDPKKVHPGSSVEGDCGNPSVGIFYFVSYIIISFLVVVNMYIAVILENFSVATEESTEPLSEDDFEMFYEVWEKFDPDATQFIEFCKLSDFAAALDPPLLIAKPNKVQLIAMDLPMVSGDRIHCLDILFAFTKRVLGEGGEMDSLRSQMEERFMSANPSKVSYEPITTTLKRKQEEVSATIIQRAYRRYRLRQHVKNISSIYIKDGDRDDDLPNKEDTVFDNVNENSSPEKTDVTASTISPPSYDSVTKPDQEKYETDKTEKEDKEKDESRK

SMILES	Analgesic efficacy [1]	Reduction in formalin flinching, result in words [1]	Decrease in formalin flinching ([1]; 10 mg/kg p.o.) [%]	Decrease in formalin flinching ([1]; 30 mg/kg p.o.) [%]	Decrease in formalin flinching ([1]; 60 mg/kg p.o.) [%]	IC50 (rat Nav1.7) [µM]	Increase in basic movement (in parentheses in the column Decrease in basic movement) (naïve rats; 10 mg/kg p.o., value in parentheses corresponds to a measured increase)	Decrease in basic movement (naïve rats; 30 mg/kg p.o.) [%]	Decrease in basic movement (naïve rats; 60 mg/kg p.o.) [%]	Kp [2]	Effective [plasma] [2] [µM]	fraction unbound [3]	IC50 (hNav1.7; [4]) [µM]	IC50 (hNav1.7; [5]) [µM]	Decrease in formalin flinching ([1]; 100 mg/kg p.o.) [%]	Decrease in basic movement (naïve rats; [6]) [%]	Decrease in basic movement (naïve rats; 100 mg/kg p.o.) [%]	Decrease in formalin flinching ([1]; 3 mg/kg p.o.) [%]	Decrease in basic movement (naïve rats; 3 mg/kg p.o.) [%]	Reduction in formalin-induced flinching ([1]; diazepam 10 mg/kg, lowest dose with statistically significant reduction) [%]
CC(=O)Nc1cccc(Nc2ncnc(N3CCC(OCc4ccccc4)CC3)n2)c1 [Compound H, N-(3-((4-(4-(benzyloxy)-1-piperidinyl)-1,3,5-triazin-2-yl)amino)phenyl)acetamide]	No	did not achieve statistically significant reversals in formalin flinching	–	–	–	–	–	–	–	–	–	–	–	–	–	–	–	–	–	–
CC(=O)Nc1cccc(Nc2ncnc(N3CCC(OCc4ccc(F)c(F)c4)CC3)n2)c1C [Compound D, N-(3-((4-(4-((3,4-difluorobenzyl)oxy)-1-piperidinyl)-1,3,5-triazin-2-yl)amino)-2-methylphenyl)acetamide]	Yes	statistically significant and plasma concentration-dependent reduction in formalin flinching	36	62	83	1.7	(1.4%)	28	50	0.19	1.27	0.067	0.6	> 10	–	–	–	–	–	–
CC(=O)Nc1cccc(Nc2ncnc(N3CCC(Oc4ccc(Cl)c(C)c4)CC3)n2)c1C [Compound B, N-(3-((4-(4-(4-chloro-3-methylphenoxy)-1-piperidinyl)-1,3,5-triazin-2-yl)amino)-2-methylphenyl)acetamide]	Yes	statistically significant and plasma concentration-dependent reduction in formalin flinching	17	30	39	3.5	–	5.6	19	–	8.75	0.006	0.5	> 10	–	–	–	–	–	–
CC(=O)Nc1cccc(Nc2ncnc(N3CCc4cc(OC(F)(F)F)ccc4C3)n2)c1 [Compound F, N-(3-((4-(6-(trifluoromethoxy)-3,4-dihydro-2(1H)-isoquinolinyl)-1,3,5-triazin-2-yl)amino)phenyl)acetamide]	Yes	statistically significant and plasma concentration-dependent reduction in formalin flinching	0	35	–	1	–	33	–	0.33	3.70	0.001	0.18	> 10	67	11	54	–	–	–
CC(=O)Nc1cc(Nc2ncnc(N3CC=C(c4ccc(C#N)cc4)CC3)n2)ccc1F [Compound E, N-(5-((4-(4-(4-cyanophenyl)-3,6-dihydro-1(2H)-pyridinyl)-1,3,5-triazin-2-yl)amino)-2-fluorophenyl)acetamide]	Yes	statistically significant and plasma concentration-dependent reduction in formalin flinching	18	62	–	3.5	–	29	–	0.49	6.14	0.009	0.09	2.1	83	2	29	–	–	–
CC(=O)Nc1cccc(Nc2ncnc(N3CC(Oc4ccc(F)cc4)C3)n2)c1C [Compound C, N-(3-((4-(3-(4-fluorophenoxy)-1-azetidinyl)-1,3,5-triazin-2-yl)amino)-2-methylphenyl)acetamide]	Yes	statistically significant and plasma concentration-dependent reduction in formalin flinching	35	53	–	4.9	–	23	–	0.03	3.68	0.164	1.3	> 10	–	8.5	–	14	6.8	–
CN1C(=O)CN=C(c2ccccc2)c2cc(Cl)ccc21 [Diazepam, diazepam, reference compound]	–	–	–	–	–	–	–	–	–	–	–	–	–	–	–	–	–	–	–	22
CC(=O)Nc1cccc(Nc2ncnc(N3CCC(Oc4ccc(Cl)c(F)c4)CC3)n2)c1C [Compound G, N-(3-((4-(4-(4-chloro-3-fluorophenoxy)-1-piperidinyl)-1,3,5-triazin-2-yl)amino)-2-methylphenyl)acetamide]	No	did not achieve statistically significant reversals in formalin flinching	–	–	–	0.8	–	–	–	0.09	–	0.006	0.3	6.6	–	–	–	–	–	–

— PMC4575030 (PLoS ONE, 2015)
